Columns and labels:
sICAM-1 = assay: Soluble ICAM-1 ELISA in MRC5 culture supernatants; assay type: cell-based, human; conditions: HRV-2 or HRV-4 infected MRC5 cultures, 100 μg/mL PA, 20 μg/mL PGG
Description: (§1) The expressions of ICAM-1 and LDLR were examined using real-time qRT-PCR and Western blot. Furthermore, concentrations of soluble ICAM-1 (sICAM-1) in cell-free culture supernatants 2 days after treatment were measured using a sICAM-1 ELISA Kit (Pierce Biotechnology, Rockford, IL) according to the manufacturer’s instructions. The sensitivities of the assays were 0.3 ng/mL. The concentrations of ICAM-1 in the test samples were determined from OD values using standard curve of each assay.

HRV-4 = assay: Real-time qRT-PCR of HRV-4 RNA replication in MRC5 cells; assay type: cell-based, human rhinovirus; conditions: MRC5, 2 days after infection; 100 μg/mL PA, 20 μg/mL PGG; vs untreated cultures
Description: (§2) To evaluate the level of gene expression, real-time qRT-PCR with SYBR Green dye was carried out. HRV-2 or HRV-4 infected and noninfected cultures of MRC5 monolayers grown in 25 cm^2 cell culture flasks (Corning, NY) were treated with 100 μg/mL PA or 20 μg/mL PGG. After incubation at 37°C and 5% CO2 for 2 days, total RNA was extracted from the culture cells using the RNeasy Plus Mini Kit (Qiagen, Hilden, Germany) according to the manufacturer’s instructions. Contaminated genomic DNA was removed using RQ1 RNase-free DNase (Promega, Madison, WI). Complementary DNA (cDNA) was synthesized using 1 μg total RNA through a reverse transcription reaction using the SuperScript First-Strand Synthesis Kit (Invitrogen, Carlsbad, CA). […] The PCR conditions were as follows: 50°C for 2 min, 95°C for 10 min, and then 50 cycles of 95°C for 15 s and either 60°C [β2-microglobulin (B2M), interleukin (IL)-6, IL-8, LDLR, ICAM-1, HRV-2, and HRV-4] or 58°C (B2M and IL-1β) or 55°C [B2M, Toll-like receptor 3 (TLR3), tumor necrosis factor (TNF), and interferon beta (IFNβ)] for 30 s. mRNA expression level of target gene was normalized to mRNA expression level for the housekeeping gene B2M and analyzed by the 2^–ΔΔCT method using StepOne Software v2.1 and DataAssist Software (Applied Biosystems). […]

IFN-β = IFN-β mRNA expression, qRT-PCR in MRC5; assay type: cell-based, human; conditions: MRC5, 2 days after HRV-2 or HRV-4 infection; 100 μg/mL PA, 20 μg/mL PGG
Description: as §2

LDLR = assay: Western blot of LDLR in MRC5 cells; assay type: cell-based, human; conditions: MRC5, 2 days, regardless of HRV-2 infection, similar with HRV-4, 100 μg/mL PA, 20 μg/mL PGG
Description: Cell lysates from infected and noninfected MRC5 cultures 2 days after incubation with or without test compounds were obtained in RIPA buffer and 1% mammalian cell protease inhibitor cocktail according to the manufacturer’s instructions. Working dilutions of primary antibodies were dilulted 500, 2000, and 1000 times for anti-ICAM-1, anti-LDLR, and anti-actin antibodies, respectively. Working dilutions of secondary antibody was 1000, 1000, and 800 for anti-ICAM-1, anti-LDLR, and anti-actin, respectively. Ten micrograms of cell lysates from different treatments were mixed with an equal volume of 5× Laemmli sample buffer, boiled in 10 min, and resolved by electrophoresis in 11% sodium dodecyl sulfate-polyacrylamide gels (SDS-PAGE). […] Differences in protein expressions were quantified using a Molecular Imager Gel Doc XR system (Bio-Rad, Hercules, CA) and normalized to actin expression on the same membrane.
as §1, with “The sensitivities of the assays were 0.3 ng/mL.” left out

TNF = TNF mRNA expression, qRT-PCR in MRC5; assay type: cell-based, human; conditions: MRC5, 2 days; 100 μg/mL PA, 20 μg/mL PGG; vs untreated cells
Description: as §2

ICAM-1 = ICAM-1 mRNA expression, qRT-PCR in MRC5; assay type: cell-based, human; conditions: MRC5, 2 days after HRV-2 or HRV-4 infection; 100 μg/mL PA, 20 μg/mL PGG
Description: as §2, with “WI).” for “WI). Complementary DNA (cDNA) was synthesized using 1 μg total RNA through a reverse transcription reaction using the SuperScript First-Strand Synthesis Kit (Invitrogen, Carlsbad, CA).”
The expressions of ICAM-1 and LDLR were examined using real-time qRT-PCR and Western blot. […] The concentrations of ICAM-1 in the test samples were determined from OD values using standard curve of each assay.

Compound | sICAM-1 levels in supernatants vs cultures without treatment (sICAM-1) | reduction of HRV-4 RNA replication level (HRV-4) [fold] | effect on HRV-induced IFN-β mRNA expression (IFN-β) | effect on LDLR protein expression (LDLR) | effect on TNF mRNA expression (TNF) | effect on HRV-induced ICAM-1 mRNA expression (ICAM-1)
COc1ccc(C(C)=O)c(O)c1 [PA, paeonol] | significantly lower | 16.3 | meaningfully inhibited | no effect | did not remarkably reduce | reduced
O=C(OC[C@H]1O[C@@H](OC(=O)c2cc(O)c(O)c(O)c2)[C@H](OC(=O)c2cc(O)c(O)c(O)c2)[C@@H](OC(=O)c2cc(O)c(O)c(O)c2)[C@@H]1OC(=O)c1cc(O)c(O)c(O)c1)c1cc(O)c(O)c(O)c1 [PGG, 1,2,3,4,6-penta-O-galloyl-β-D-glucopyranose] | significantly lower | 15.1 | meaningfully inhibited | sharp decline | did not remarkably reduce | reduced
